Molecular target: T1, KCNQ2/3 channels (Homo sapiens, UniProt O43525+O43526)
T1 construct: expressed in transfected cells
Assay: Fluorescence assay using a voltage sensitive dye (fluorimetry)
Assay type: cell-based
Conditions: CHO-K1 cells expressing KCNQ2/3; for Emax: CHO-K1, plateau effect relative to saturated retigabine (50 μM) = 100%, negative values = antagonistic, read-out: Fluorimetry % efficacy (retigabine = 100%); for EC50: IC50 where % efficacy is negative, read-out: Fluorimetry EC50/IC50

T1 sequence (O43526 whole entry): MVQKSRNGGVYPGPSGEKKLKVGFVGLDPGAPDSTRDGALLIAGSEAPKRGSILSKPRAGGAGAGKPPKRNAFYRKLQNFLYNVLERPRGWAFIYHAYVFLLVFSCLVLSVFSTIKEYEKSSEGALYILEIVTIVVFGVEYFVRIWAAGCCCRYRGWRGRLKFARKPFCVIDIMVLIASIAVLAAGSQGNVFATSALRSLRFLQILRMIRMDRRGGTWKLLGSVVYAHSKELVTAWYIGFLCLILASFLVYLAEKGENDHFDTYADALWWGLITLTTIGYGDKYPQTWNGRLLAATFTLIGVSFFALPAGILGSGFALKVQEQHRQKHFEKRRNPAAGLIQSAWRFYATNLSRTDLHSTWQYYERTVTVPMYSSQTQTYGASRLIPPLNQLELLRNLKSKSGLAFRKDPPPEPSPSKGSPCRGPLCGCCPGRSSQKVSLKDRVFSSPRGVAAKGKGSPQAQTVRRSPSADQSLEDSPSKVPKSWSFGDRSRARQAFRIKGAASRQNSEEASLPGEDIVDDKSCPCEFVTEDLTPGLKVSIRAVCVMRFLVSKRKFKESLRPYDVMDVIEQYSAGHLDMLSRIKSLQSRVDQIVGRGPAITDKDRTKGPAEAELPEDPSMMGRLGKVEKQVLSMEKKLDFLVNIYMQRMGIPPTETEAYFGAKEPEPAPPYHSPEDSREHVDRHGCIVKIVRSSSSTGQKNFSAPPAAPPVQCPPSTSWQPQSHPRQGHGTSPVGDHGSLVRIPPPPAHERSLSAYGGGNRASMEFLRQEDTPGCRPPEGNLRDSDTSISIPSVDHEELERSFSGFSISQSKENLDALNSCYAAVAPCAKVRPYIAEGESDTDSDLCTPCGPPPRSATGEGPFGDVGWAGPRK
T1 sequence (O43525 whole entry): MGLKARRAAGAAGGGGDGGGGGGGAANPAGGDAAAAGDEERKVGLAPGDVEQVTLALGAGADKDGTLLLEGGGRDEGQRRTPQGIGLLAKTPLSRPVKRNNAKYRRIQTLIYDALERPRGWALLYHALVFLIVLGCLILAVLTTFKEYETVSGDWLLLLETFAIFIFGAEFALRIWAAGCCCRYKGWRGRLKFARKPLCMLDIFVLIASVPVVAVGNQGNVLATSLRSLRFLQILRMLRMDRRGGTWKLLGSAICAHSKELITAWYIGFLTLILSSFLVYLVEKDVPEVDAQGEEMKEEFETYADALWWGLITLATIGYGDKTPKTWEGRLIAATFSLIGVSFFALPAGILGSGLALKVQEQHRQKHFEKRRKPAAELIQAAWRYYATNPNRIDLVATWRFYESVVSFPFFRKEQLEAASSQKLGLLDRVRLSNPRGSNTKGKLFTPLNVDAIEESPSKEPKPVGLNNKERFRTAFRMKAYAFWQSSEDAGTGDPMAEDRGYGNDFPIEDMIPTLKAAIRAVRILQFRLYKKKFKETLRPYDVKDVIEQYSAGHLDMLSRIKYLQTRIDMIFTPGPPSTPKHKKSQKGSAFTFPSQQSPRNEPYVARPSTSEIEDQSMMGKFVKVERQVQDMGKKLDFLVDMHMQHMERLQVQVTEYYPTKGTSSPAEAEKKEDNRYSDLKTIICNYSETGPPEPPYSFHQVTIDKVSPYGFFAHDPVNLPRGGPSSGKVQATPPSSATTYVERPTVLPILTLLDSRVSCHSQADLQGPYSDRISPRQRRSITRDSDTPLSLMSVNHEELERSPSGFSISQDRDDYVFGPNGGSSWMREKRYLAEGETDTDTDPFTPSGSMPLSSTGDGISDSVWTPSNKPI

Emax [%] | EC50 [µM] | Compound
131 | 0.112 | CCSc1nc(N2CCc3nc(C(F)(F)F)ccc3C2)cc(C)c1C(=O)NCc1cccc(F)c1 [Example 232, 2-Ethylsulfanyl-N-[(3-fluorophenyl)-methyl]-4-methyl-6-[2-(trifluoromethyl)-5,6,7,8-tetrahydro-[1,6]naphthyridin-6-yl]-pyridine-3-carboxylic acid amide]
196 | 0.07 | CCSc1nc(N2CCOC[C@H]2C)cc(C)c1C(=O)NCc1cc(F)cc(F)c1 [Example 233, N-[(3,5-Difluoro-phenyl)-methyl]-2-ethylsulfanyl-4-methyl-6-[(3R)-3-methyl-morpholin-4-yl]-pyridine-3-carboxylic acid amide]
195 | 0.124 | COc1nc(N2CCOC[C@H]2C)cc(C)c1C(=O)NCc1cc(F)cc(F)c1 [Example 234, N-[(3,5-Difluoro-phenyl)-methyl]-2-methoxy-4-methyl-6-[(3R)-3-methyl-morpholin-4-yl]-pyridine-3-carboxylic acid amide]
235 | 0.196 | CCSc1nc(N2CCOC[C@H]2C)cc(C)c1C(=O)NCCCC(F)(F)F [Example 235, 2-Ethylsulfanyl-4-methyl-6-[(3R)-3-methyl-morpholin-4-yl]-N-(4,4,4-trifluoro-butyl)-pyridine-3-carboxylic acid amide]
227 | 0.469 | COc1nc(N2CCOC[C@H]2C)cc(C)c1C(=O)NCCCC(F)(F)F [Example 236, 2-Methoxy-4-methyl-6-[(3R)-3-methyl-morpholin-4-yl]-N-(4,4,4-trifluoro-butyl)-pyridine-3-carboxylic acid amide]
148 | 0.056 | CCSc1nc(N2CCOC[C@H]2C)cc(C)c1C(=O)NCc1ccc(C(F)(F)F)cc1 [Example 237, 2-Ethylsulfanyl-4-methyl-6-[(3R)-3-methyl-morpholin-4-yl]-N-[[4-(trifluoromethyl)-phenyl]-methyl]-pyridine-3-carboxylic acid amide]
164 | 0.102 | COc1nc(N2CCOC[C@H]2C)cc(C)c1C(=O)NCc1ccc(C(F)(F)F)cc1 [Example 238, 2-Methoxy-4-methyl-6-[(3R)-3-methyl-morpholin-4-yl]-N-[[4-(trifluoromethyl)-phenyl]-methyl]pyridine-3-carboxylic acid amide]
125 | 1.82 | CCSc1nc(N2CC(COC)C2)cc(C)c1C(=O)NCc1cccc(F)c1 [Example 239, 2-Ethylsulfanyl-N-[(3-fluorophenyl)-methyl]-6-[3-(methoxymethyl)-azetidin-1-yl]-4-methyl-pyridine-3-carboxylic acid amide]
174 | 0.394 | CCSc1nc(N2CC(C)OCC2C)cc(C)c1C(=O)NCc1cccc(F)c1 (centres unmarked) [Example 240, 6-(2,5-Dimethyl-morpholin-4-yl)-2-ethylsulfanyl-N-[(3-fluorophenyl)-methyl]-4-methyl-pyridine-3-carboxylic acid amide]
160 | 0.558 | Cc1cc(N2CCOCC2)nc(N(C)C)c1C(=O)NCc1ccc(C(F)(F)F)cc1 [Example 241, 2-Dimethylamino-4-methyl-6-morpholin-4-yl-N-[[4-(trifluoromethyl)-phenyl]-methyl]-pyridine-3-carboxylic acid amide]
214 | 0.366 | Cc1cc(N2CCOCC2)nc(N(C)C)c1C(=O)NCc1cc(F)cc(F)c1 [Example 242, N-[(3,5-Difluoro-phenyl)-methyl]-2-dimethylamino-4-methyl-6-morpholin-4-yl-pyridine-3-carboxylic acid amide]
105 | 1.28 | CCSc1nc(N2CCn3cc(C(F)(F)F)nc3C2)cc(C)c1C(=O)NCc1cccc(F)c1 [Example 243, 2-Ethylsulfanyl-N-[(3-fluorophenyl)-methyl]-4-methyl-6-[2-(trifluoromethyl)-5,6,7,8-tetrahydro-imidazo[1,2-a]pyrazin-7-yl]-pyridine-3-carboxylic acid amide]
225 | 0.345 | Cc1cc(N2CCOCC2)nc(N(C)C)c1C(=O)NCCCC(C)(C)C [Example 245, 2-Dimethylamino-N-(4,4-dimethyl-pentyl)-4-methyl-6-morpholin-4-yl-pyridine-3-carboxylic acid amide]
173 | 4.1 | Cc1cc(N2CCOCC2)nc(N(C)C)c1C(=O)NCCCC(F)(F)F [Example 246, 2-Dimethylamino-4-methyl-6-morpholin-4-yl-N-(4,4,4-trifluoro-butyl)-pyridine-3-carboxylic acid amide]
38 |  | CCSc1nc(N2CCOCC2)cc(C)c1C(=O)NCc1ccc(S(C)(=O)=O)cc1 [Example 247, 2-Ethylsulfanyl-4-methyl-N-[(4-methylsulfonyl-phenyl)-methyl]-6-morpholin-4-yl-pyridine-3-carboxylic acid amide]
223 | 0.313 | CCSc1nc(N2CCOC[C@H]2COC)cc(C)c1C(=O)NCc1ccc(F)cc1 [Example 248, 2-Ethylsulfanyl-N-[(4-fluorophenyl)-methyl]-6-[(3R)-3-(methoxymethyl)-morpholin-4-yl]-4-methyl-pyridine-3-carboxylic acid amide]
129 | 0.082 | CCSc1nc(N2CCOC[C@@H]2COC)cc(C)c1C(=O)NCc1ccc(F)cc1 [Example 249, 2-Ethylsulfanyl-N-[(4-fluorophenyl)-methyl]-6-[(3S)-3-(methoxymethyl)-morpholin-4-yl]-4-methyl-pyridine-3-carboxylic acid amide]
196 | 0.371 | Cc1cc(N2CCOCC2)nc(C(C)(C)C)c1C(=O)NCc1cccc(F)c1 [Example 250, 2-tert-Butyl-N-[(3-fluorophenyl)-methyl]-4-methyl-6-morpholin-4-yl-pyridine-3-carboxylic acid amide]
97 | 1.59 | CCSc1nc(N2CCN(CC(F)(F)F)CC2)cc(C)c1C(=O)NCc1cccc(F)c1 [Example 251, 2-Ethylsulfanyl-N-[(3-fluorophenyl)-methyl]-4-methyl-6-[4-(2,2,2-trifluoro-ethyl)-piperazin-1-yl]-pyridine-3-carboxylic acid amide]
137 | 0.274 | CCSc1nc(N2CCOC(C)(C)C2)cc(C)c1C(=O)NCc1cccc(F)c1 [Example 252, 6-(2,2-Dimethyl-morpholin-4-yl)-2-ethylsulfanyl-N-[(3-fluorophenyl)-methyl]-4-methyl-pyridine-3-carboxylic acid amide]
79 | 5.74 | CCSc1nc(N(C)CC(C)=O)cc(C)c1C(=O)NCc1cccc(F)c1 [Example 253, 2-Ethylsulfanyl-N-[(3-fluorophenyl)-methyl]-4-methyl-6-[methyl-(2-oxo-propyl)-amino]-pyridine-3-carboxylic acid amide]
113 | 0.943 | CCSc1nc(N2CCO[C@@H](COC)C2)cc(C)c1C(=O)NCc1ccc(Cl)cc1 [Example 254, N-[(4-Chlorophenyl)-methyl]-2-ethylsulfanyl-6-[(2R)-2-(methoxymethyl)-morpholin-4-yl]-4-methyl-pyridine-3-carboxylic acid amide]
121 | 0.169 | CCSc1nc(N2CCO[C@H](COC)C2)cc(C)c1C(=O)NCc1ccc(Cl)cc1 [Example 255, N-[(4-Chlorophenyl)-methyl]-2-ethylsulfanyl-6-[(2S)-2-(methoxymethyl)-morpholin-4-yl]-4-methyl-pyridine-3-carboxylic acid amide]
221 | 0.101 | CCSc1nc(N2CCOC[C@H]2COC)cc(C)c1C(=O)NCc1ccc(Cl)cc1 [Example 256, N-[(4-Chlorophenyl)-methyl]-2-ethylsulfanyl-6-[(3R)-3-(methoxymethyl)-morpholin-4-yl]-4-methyl-pyridine-3-carboxylic acid amide]
125 | 0.023 | CCSc1nc(N2CCOC[C@@H]2COC)cc(C)c1C(=O)NCc1ccc(Cl)cc1 [Example 257, N-[(4-Chlorophenyl)-methyl]-2-ethylsulfanyl-6-[(3S)-3-(methoxymethyl)-morpholin-4-yl]-4-methyl-pyridine-3-carboxylic acid amide]
170 | 0.301 | CCSc1nc(N(C)C2CCOCC2)cc(C)c1C(=O)NCc1cccc(F)c1 [Example 258, 2-Ethylsulfanyl-N-[(3-fluorophenyl)-methyl]-4-methyl-6-(methyl-tetrahydro-pyran-4-yl-amino)-pyridine-3-carboxylic acid amide]
133 | 0.298 | CCSc1nc(N(C)C2CCC(OC)CC2)cc(C)c1C(=O)NCc1cccc(F)c1 (centres unmarked) [Example 259, 2-Ethylsulfanyl-N-[(3-fluorophenyl)-methyl]-6-[(4-methoxy-cyclohexyl)-methyl-amino]-4-methyl-pyridine-3-carboxylic acid amide]
127 | 0.149 | CCSc1nc(N2CCOC(C(F)(F)F)C2)cc(C)c1C(=O)NCc1cccc(F)c1 (centres unmarked) [Example 260, 2-Ethylsulfanyl-N-[(3-fluorophenyl)-methyl]-4-methyl-6-[2-(trifluoromethyl)-morpholin-4-yl]-pyridine-3-carboxylic acid amide]
96 | 0.786 | CCSc1nc(N(C)C2CCCOC2)cc(C)c1C(=O)NCc1cccc(F)c1 (centres unmarked) [Example 261, 2-Ethylsulfanyl-N-[(3-fluorophenyl)-methyl]-4-methyl-6-(methyl-tetrahydro-pyran-3-yl-amino)-pyridine-3-carboxylic acid amide]
182 | 0.374 | CCSc1nc(N2C(C)COCC2C)cc(C)c1C(=O)NCc1cccc(F)c1 (centres unmarked) [Example 262, 6-(3,5-Dimethyl-morpholin-4-yl)-2-ethylsulfanyl-N-[(3-fluorophenyl)-methyl]-4-methyl-pyridine-3-carboxylic acid amide]
